Source: patent US20190380980A1, “A Method For Treating Peripheral Inflammatory Disease” (Dublin City University, priority 2015, published 2019)

What was measured:
[1] = test system: Bone marrow derived dendritic cells (BMDCs); assay: In vitro screening of oleamide and analogues: cytokine secretion by LPS-stimulated BMDCs; type: cell-based, Balb/c mice; details: for +LPS IL-12p40 / +LPS IL-12p70 / +LPS IL-23 / +LPS TNF-α: Table 3, BMDCs, 25 uM compound 1 hour prior to 100 ng/ml LPS, supernatants after 24 hours; for immunomodulatory effect: summary statement on the cytokine tables
Description: FIG. 2: In vitro results: Bone marrow dendritic cells (BMDCs) were cultured in vitro and plated at 1×10^6 cells per ml. The BMDCs were conditioned with 25 uM oleamide 1 hour prior to stimulation with 100 ng/ml LPS (E. coli serotype R515). After 24 hours, the supernatants were removed and analysed for cytokine levels of IL-12p40, IL-12p70, IL-23 and TNF-alpha using specific immunoassays. (n=9)
FIGS. 4(A) to 4(G): In vitro Results: Bone marrow dendritic cells (BMDCs) were cultured in vitro and plated at 1×10^6 cells/ml. The BMDCs were conditioned with oleamide or its family of analogues at a concentration of 25 uM 1 hour prior to stimulation with 100 ng/ml LPS (E. coli serotype R515). After 24 hours, the supernatants were removed and analysed for levels of IL-12p40, IL-12p70, IL-23 and TNF-alpha using specific immunoassays. (n=9)
(§1) FIG. 6: Bone marrow-derived dendritic cells (BMDCs) were cultured in vitro and plated at 1×10^6 cells/ml. The BMDCs were conditioned with analogues of oleamide (compounds 19.2, 20.1, 36.2, 37.1 or 39.1) at a concentration of 25 μM 1 hour prior to stimulation with 100 ng/ml LPS (E. coli serotype R515). After 24 hours, the supernatants were removed and analysed for levels of IL-12p40, IL-12p70, IL-23 and TNF-alpha using specific immunoassays. (n=9)
as §1, with “7:” for “6:”, “18.2, 21.2, 22.2, 23.2, 33.1” for “19.2, 20.1, 36.2, 37.1”, “34.1 in panel A and 35.1, 38.1, 50.2 in panel B)” for “39.1)”
The concentration of cytokines in cell supernatants was determined using ELISA Duoset kits from R&D Systems in accordance with the manufacturers' instructions. Briefly, 100 μl/well of capture antibody (diluted to the appropriate concentration in PBS) was added to an ELISA plate (Nunc) and incubated overnight at room temperature. Plates were then washed three times with Wash Buffer (PBS+0.05% Tween-20) and blocked by adding 300 μl of Blocking buffer (1% (w/v) BSA/PBS) for a minimum of 1 h at room temperature. The washing step was repeated and 100 μl of samples and standards (diluted to appropriate concentrations) were added per well, in triplicate. Plates were then incubated at 2-4° C. overnight. The next day, plates were washed again and 100 μl of the biotinylated detection antibody was added to each well and incubated for 2 hours at room temperature. 100 μl of Streptavidin-horseradish-peroxidase (R&D Systems) was then added to each well, following another wash step. Plates were incubated for 20 min at room temperature. After the last washing step, 100 μl of tetramethylbenzidine (BD Biosciences) was added to each well and plates were left in the dark for 20 minutes or until a blue colour developed. Colour development was stopped by adding 50 μl of 1M sulphuric acid (Sigma-Aldrich) to the wells. The optical density was determined at 450 nm, using a VersaMax™ microplate reader (Molecular Devices). For each set of samples, a standard curve was generated and the values of unknown samples were calculated from the standard curve.
Bone marrow derived dendritic cells (BMDCs) were cultured as follows:
(Day 1) Bone marrow cells were harvested from the femur and tibia of Balb/c female mice by flushing the bone with RPMI 1640 complete media [supplemented with 10% foetal calf serum and 2% Penicilin-Steptomycin (Life Technologies, Ireland)] using a 27 gauge needle attached to a 10 ml syringe. The bone marrow cells were collected into a 50-ml Falcon tube and centrifuged at 1200 RPM for 5 minutes. […]

[2] = test system: BV2 murine microglial cells; details: lipopolysaccharide-stimulated neuronal microglia; cited from earlier work

| Compound | +LPS IL-12p40 [1] | +LPS IL-12p70 [1] | +LPS IL-23 [1] | +LPS TNF-α [1] | activation of p38, ERK, PI3-kinase/Akt, ROS accumulation and NF-κB activation [2] | pro-inflammatory mediators [2] | immunomodulatory effect [1] |
| --- | --- | --- | --- | --- | --- | --- | --- |
| CCCCCCCC/C=C\CCCCCCCC(=O)Nc1ccc(N(CC)CC)cc1 [Compound 20-1, N-(4-(diethylamino)phenyl)oleamide] | → | ↓ | → | → | – | – | – |
| CCCCCCCC/C=C\CCCCCCCC(N)=O [Ole, 9(Z)-Octadecenamide] | ↓ | ↓ | ↓ | → | blocks activation | suppressor of pro-inflammatory mediators | immunomodulatory effect |
| CCCCCCCC/C=C\CCCCCCCC(=O)NCc1ccccc1C(F)(F)F [Compound 35-1, N-(2-(trifluoromethyl)benzyl)oleamide] | → | → | ↓ | → | – | – | – |
| CC/C=C\C/C=C\C/C=C\CCCCCCCC(N)=O [linolenamide] | – | – | – | – | – | – | immunomodulatory effect |
| NC(=O)COCCCCOc1ccccc1 [Compound 50-2, 2-(4-phenoxybutoxy) acetamide] | → | → | ↓ | → | – | – | – |
| CCCCCCCC/C=C\CCCCCCCC(=O)Nc1ccncc1 [Compound 39-1, N-(pyridin-4-yl) oleamide] | ↓ | ↓ | → | → | – | – | – |
| CCCCCCCC/C=C\CCCCCCCC(=O)Nc1ccc(N(C)C)cc1 [Compound 19-2, N-(4-(dimethylamino)phenyl)oleamide] | → | → | → | → | – | – | – |
| CCCCCCCC/C=C\CCCCCCCC(=O)Nc1cccnc1 [Compound 38-1, N-(pyridin-3-yl) oleamide] | ↓ | → | ↓ | → | – | – | – |
| CCCCCCCC/C=C\CCCCCCCC(=O)Nc1ccccn1 [Compound 37-1, N-(pyridin-2-yl) oleamide] | → | → | ↓ | ↓ | – | – | – |
| CCCCCCCC/C=C\CCCCCCCC(=O)NCc1cccc(C(F)(F)F)c1 [Compound 34-1, N-(3-(trifluoromethyl)benzyl)oleamide] | ↑ | → | ↓ | → | – | – | – |
| CCCCC/C=C\C/C=C\CCCCCCCC(N)=O [linoleamide] | – | – | – | – | – | – | immunomodulatory effect |
| CCCCCC/C=C\CCCCCCCC(N)=O [palmitoleamide] | – | – | – | – | – | – | immunomodulatory effect |
| CCCCCCCC/C=C\CCCCCCCC(=O)NCc1ccccc1OC [Compound 23-2, N-(2-methoxybenzyl) oleamide] | ↑ | → | ↓ | → | – | – | – |
| CCCCC/C=C\C/C=C\C/C=C\C/C=C\CCCC(N)=O [arachidonamide] | – | – | – | – | – | – | immunomodulatory effect |
| CCCCCCCC/C=C\CCCCCCCC(=O)NCc1ccc(OC)cc1 [Compound 21-2, N-(4-methoxybenzyl) oleamide] | ↑ | ↑ | ↓ | → | – | – | – |
| CCCCCCCC/C=C\CCCCCCCC(=O)NCc1ccc(C(F)(F)F)cc1 [Compound 33-1, N-(4-(trifluoromethyl)benzyl)oleamide] | ↑ | ↑ | → | → | – | – | – |
| CCCCCCCC/C=C\CCCCCCCC(=O)NCc1cccc(OC)c1 [Compound 22-2, N-(3-methoxybenzyl) oleamide] | ↑ | ↑ | ↓ | → | – | – | – |
| CCCCCCCCCCCCCCCCCC(N)=O [stearamide] | – | – | – | – | – | – | immunomodulatory effect |
| CCCCCCCC/C=C\CCCCCCCC(=O)NCc1ccccc1 [Compound 18-2, N-benzyloleamide] | ↑ | ↑ | → | → | – | – | – |
| CCCCCCCC/C=C\CCCCCCCC(=O)Nc1ccc2ccccc2n1 [Compound 36-2, N-(quinolin-2-yl) oleamide] | ↓ | ↓ | ↓ | ↓ | – | – | – |
| CCCCCCCCCCCCCCCC(N)=O [palmitamide] | – | – | – | – | – | – | immunomodulatory effect |
| NC(=O)COCCCOCc1ccccc1 [Compound 51-2, 2-(3-(benzyloxy)propoxy) acetamide] | ↓ | ↓ | ↓ | → | – | – | – |
